In patent publication US10750743B2, “Pyridazinone herbicides” (E.I. DU PONT DE NEMOURS AND COMPANY, priority 2015, dated 2020):

Columns and labels:
Format in all cases: in vivo
[1] = system: ryegrass, It. (Italian ryegrass, Lolium multiflorum); experiment: Test A preemergence, directed soil spray, visual injury rating; conditions: Lolium multiflorum, pre-emergence, 240 h, 0 is no effect, 100 is complete control, read-out: Plant response rating (0 to 100 scale), Ryegrass, It.; for pest or weed control at 125 g/ha: 125 g ai/ha
In short: (§1)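 Compounds in a surfactant-containing solvent were applied as a directed soil spray preemergence, or postemergence to plants 2-10 cm tall at the one- to two-leaf stage, in loam-sand blend. After about 10 d in the greenhouse, injury was rated visually against untreated controls on a 0-100 scale (100 = complete control).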

[2] = system: ragweed (common ragweed, Ambrosia elatior); experiment: as above; conditions: Ambrosia artemisiifolia, pre-emergence, 240 h, 0 is no effect, 100 is complete control, read-out: Plant response rating (0 to 100 scale), Ragweed; for pest or weed control at 125 g/ha: 125 g ai/ha
In short: as §1

kochia (Kochia scoparia) [3] = experiment: as above; conditions: Bassia scoparia, pre-emergence, 240 h, 0 is no effect, 100 is complete control, read-out: Plant response rating (0 to 100 scale), Kochia; for pest or weed control at 125 g/ha: 125 g ai/ha
In short: as §1

[4] = system: pigweed (Amaranthus retroflexus); experiment: as above; conditions: Amaranthus retroflexus, pre-emergence, 240 h, 0 is no effect, 100 is complete control, read-out: Plant response rating (0 to 100 scale), Pigweed; for pest or weed control at 125 g/ha: 125 g ai/ha
In short: as §1

[5] = system: barnyardgrass (Echinochloa crus-galli); experiment: as above; conditions: Echinochloa crus-galli, pre-emergence, 240 h, 0 is no effect, 100 is complete control, read-out: Plant response rating (0 to 100 scale), Barnyardgrass; for pest or weed control at 125 g/ha: 125 g ai/ha
In short: as §1

[6] = system: foxtail, giant (giant foxtail, Setaria faberii); experiment: as above; conditions: Setaria faberi, pre-emergence, 240 h, 0 is no effect, 100 is complete control, read-out: Plant response rating (0 to 100 scale), Foxtail, Giant; for pest or weed control at 125 g/ha: 125 g ai/ha
In short: as §1

[7] = system: galium (catchweed bedstraw, Galium aparine); experiment: Test A postemergence application, visual injury rating; conditions: for pest or weed control at 125 g/ha: 125 g ai/ha
In short: as §1

[8] = system: ryegrass, It. (Italian ryegrass, Lolium multiflorum); experiment: as above; conditions: for pest or weed control at 125 g/ha: 125 g ai/ha
In short: as §1

[9] = system: ragweed (common ragweed, Ambrosia elatior); experiment: as above; conditions: for pest or weed control at 125 g/ha: 125 g ai/ha
In short: as §1

[10] = system: blackgrass (Alopecurus myosuroides); experiment: as above; conditions: Alopecurus myosuroides, post-emergence, 240 h, 0 to 100 scale, 0 no effect, 100 complete control, read-out: Blackgrass plant response rating; for pest or weed control at 125 g/ha: 125 g ai/ha
In short: as §1

kochia (Kochia scoparia) [11] = experiment: as above; conditions: for pest or weed control at 125 g/ha: 125 g ai/ha
In short: as §1

[12] = system: wheat (Triticum aestivum); experiment: as above; conditions: for plant injury at 125 g/ha: 125 g ai/ha
In short: as §1

[13] = system: pigweed (Amaranthus retroflexus); experiment: as above; conditions: for pest or weed control at 125 g/ha: 125 g ai/ha
In short: as §1

corn (Zea mays) = experiment: as above; conditions: for plant injury at 125 g/ha: 125 g ai/ha
In short: as §1

[14] = system: barnyardgrass (Echinochloa crus-galli); experiment: as above; conditions: Echinochloa crus-galli, post-emergence, 240 h, 0 to 100 scale, 0 no effect, 100 complete control, read-out: Barnyardgrass plant response rating; for pest or weed control at 125 g/ha: 125 g ai/ha
In short: as §1

[15] = system: foxtail, giant (giant foxtail, Setaria faberii); experiment: as above; conditions: for pest or weed control at 125 g/ha: 125 g ai/ha
In short: as §1

[16] = system: ducksalad (Heteranthera limosa); experiment: Test B flooded paddy test, visual rating; conditions: Heteranthera limosa, 360 h; Flood, 250 g ai/ha, applied to paddy water, rated after 13 to 15 d; read-out: Ducksalad plant response rating (0 to 100 scale, 0 is no effect, 100 is complete control)
In short: (§2)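 Plants grown to the 2-leaf stage. At treatment, pots were flooded to 3 cm above the soil, compound was applied directly to the paddy water, and that depth was held throughout. After 13 to 15 d in the greenhouse, response was rated visually against controls on a 0 (no effect) to 100 (complete control) scale.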

rice (Oryza sativa) = experiment: Test B flooded paddy test, visual rating; conditions: Oryza sativa, 360 h; Flood, 250 g ai/ha, applied to paddy water, rated after 13 to 15 d; read-out: Rice plant response rating (0 to 100 scale, 0 is no effect, 100 is complete control)
In short: as §2

[17] = system: sedge, umbrella (small-flower umbrella sedge, Cyperus difformis); experiment: Test B flooded paddy test, visual rating; conditions: Cyperus difformis, 360 h; Flood, 250 g ai/ha, applied to paddy water, rated after 13 to 15 d; read-out: Sedge, Umbrella plant response rating (0 to 100 scale, 0 is no effect, 100 is complete control)
In short: as §2

[18] = Galium, post-emergence, 240 h, 0 to 100 scale, 0 no effect, 100 complete control, read-out: Galium plant response rating
[19] = Lolium multiflorum, post-emergence, 240 h, 0 to 100 scale, 0 no effect, 100 complete control, read-out: Ryegrass, It. plant response rating
[20] = Ambrosia artemisiifolia, post-emergence, 240 h, 0 to 100 scale, 0 no effect, 100 complete control, read-out: Ragweed plant response rating
[21] = Bassia scoparia, post-emergence, 240 h, 0 to 100 scale, 0 no effect, 100 complete control, read-out: Kochia plant response rating
[22] = Triticum aestivum, post-emergence, 240 h, 0 to 100 scale, 0 no effect, 100 complete control, read-out: Wheat plant response rating
[23] = Amaranthus retroflexus, post-emergence, 240 h, 0 to 100 scale, 0 no effect, 100 complete control, read-out: Pigweed plant response rating
[24] = Zea mays, post-emergence, 240 h, 0 to 100 scale, 0 no effect, 100 complete control, read-out: Corn plant response rating
[25] = Setaria faberi, post-emergence, 240 h, 0 to 100 scale, 0 no effect, 100 complete control, read-out: Foxtail, Giant plant response rating
[26] = 31 g ai/ha, 0 is no effect, 100 is complete control

CCOC(=O)Oc1c(C)nn(C)c(=O)c1-c1c(C)ccc2sccc12 [Compound 30, 1,6-dihydro-1,3-dimethyl-5-(5-methylbenzo[b]thien-4-yl)-6-oxo-4-pyridazinyl ethyl carbonate]
pest or weed control at 125 g/ha [1]: 90%
pest or weed control at 500 g/ha ([1]; 500 g ai/ha): 100%
pest or weed control at 125 g/ha [2]: 20%
pest or weed control at 500 g/ha ([2]; 500 g ai/ha): 90%
pest or weed control at 125 g/ha (kochia (Kochia scoparia) [3]): 10%
pest or weed control at 500 g/ha (kochia (Kochia scoparia) [3]; 500 g ai/ha): 80%
pest or weed control at 125 g/ha [4]: 90%
pest or weed control at 500 g/ha ([4]; 500 g ai/ha): 100%
pest or weed control at 125 g/ha [5]: 0%
pest or weed control at 500 g/ha ([5]; 500 g ai/ha): 90%
pest or weed control at 125 g/ha [6]: 0%
pest or weed control at 500 g/ha ([6]; 500 g ai/ha): 80%
pest or weed control at 125 g/ha [7, 18]: 90%
pest or weed control at 500 g/ha ([7]; Galium, post-emergence, 240 h, 500 g ai/ha, 0 to 100 scale, 0 no effect, 100 complete control, read-out: Galium plant response rating): 100%
pest or weed control at 125 g/ha [8, 19]: 100%
pest or weed control at 500 g/ha ([8]; Lolium multiflorum, post-emergence, 240 h, 500 g ai/ha, 0 to 100 scale, 0 no effect, 100 complete control, read-out: Ryegrass, It. plant response rating): 100%
pest or weed control at 125 g/ha [9, 20]: 60%
pest or weed control at 500 g/ha ([9]; Ambrosia artemisiifolia, post-emergence, 240 h, 500 g ai/ha, 0 to 100 scale, 0 no effect, 100 complete control, read-out: Ragweed plant response rating): 90%
pest or weed control at 125 g/ha [10]: 40%
pest or weed control at 500 g/ha ([10]; 500 g ai/ha): 90%
pest or weed control at 125 g/ha (kochia (Kochia scoparia) [11]; [21]): 90%
pest or weed control at 500 g/ha (kochia (Kochia scoparia) [11]; Bassia scoparia, post-emergence, 240 h, 500 g ai/ha, 0 to 100 scale, 0 no effect, 100 complete control, read-out: Kochia plant response rating): 100%
plant injury at 125 g/ha [12, 22]: 0%
plant injury at 500 g/ha ([12]; Triticum aestivum, post-emergence, 240 h, 500 g ai/ha, 0 to 100 scale, 0 no effect, 100 complete control, read-out: Wheat plant response rating): 30%
pest or weed control at 125 g/ha [13, 23]: 90%
pest or weed control at 500 g/ha ([13]; Amaranthus retroflexus, post-emergence, 240 h, 500 g ai/ha, 0 to 100 scale, 0 no effect, 100 complete control, read-out: Pigweed plant response rating): 90%
plant injury at 125 g/ha (corn (Zea mays); [24]): 20%
plant injury at 500 g/ha (corn (Zea mays); Zea mays, post-emergence, 240 h, 500 g ai/ha, 0 to 100 scale, 0 no effect, 100 complete control, read-out: Corn plant response rating): 40%
pest or weed control at 125 g/ha [14]: 10%
pest or weed control at 500 g/ha ([14]; 500 g ai/ha): 80%
pest or weed control at 125 g/ha [15, 25]: 10%
pest or weed control at 500 g/ha ([15]; Setaria faberi, post-emergence, 240 h, 500 g ai/ha, 0 to 100 scale, 0 no effect, 100 complete control, read-out: Foxtail, Giant plant response rating): 70%
pest or weed control at 250 g/ha [16]: 0%
plant injury at 250 g/ha (rice (Oryza sativa)): 0%
pest or weed control at 250 g/ha [17]: 0%

Cn1nc(Cl)c(O)c(-c2nccc3ccccc23)c1=O [Compound 67, 6-chloro-5-hydroxy-4-(1-isoquinolinyl)-2-methyl-3(2H)-pyridazinone]
pest or weed control at 31 g/ha ([1]; 31 g ai/ha): 10%
pest or weed control at 125 g/ha [1]: 50%
pest or weed control at 31 g/ha ([2]; 31 g ai/ha): 0%
pest or weed control at 125 g/ha [2]: 0%
pest or weed control at 31 g/ha (kochia (Kochia scoparia) [3]; 31 g ai/ha): 0%
pest or weed control at 125 g/ha (kochia (Kochia scoparia) [3]): 0%
pest or weed control at 31 g/ha ([4]; 31 g ai/ha): 10%
pest or weed control at 125 g/ha [4]: 20%
pest or weed control at 31 g/ha ([5]; 31 g ai/ha): 0%
pest or weed control at 125 g/ha [5]: 0%
pest or weed control at 31 g/ha ([6]; 31 g ai/ha): 0%
pest or weed control at 125 g/ha [6]: 0%
Plant response rating (0 to 100 scale), Galium [7, 26]: 20
pest or weed control at 125 g/ha [7, 18]: 40%
Plant response rating (0 to 100 scale), Ryegrass, It. [8, 26]: 20
pest or weed control at 125 g/ha [8, 19]: 60%
Plant response rating (0 to 100 scale), Ragweed [9, 26]: 0
pest or weed control at 125 g/ha [9, 20]: 10%
pest or weed control at 31 g/ha ([10]; 31 g ai/ha): 0%
pest or weed control at 125 g/ha [10]: 0%
Plant response rating (0 to 100 scale), Kochia (kochia (Kochia scoparia) [11]; [26]): 0
pest or weed control at 125 g/ha (kochia (Kochia scoparia) [11]; [21]): 40%
Plant response rating (0 to 100 scale), Wheat [12, 26]: 0
plant injury at 125 g/ha [12, 22]: 0%
Plant response rating (0 to 100 scale), Pigweed [13, 26]: 40
pest or weed control at 125 g/ha [13, 23]: 50%
Plant response rating (0 to 100 scale), Corn (corn (Zea mays); [26]): 0
plant injury at 125 g/ha (corn (Zea mays); [24]): 0%
pest or weed control at 31 g/ha ([14]; 31 g ai/ha): 0%
pest or weed control at 125 g/ha [14]: 0%
Plant response rating (0 to 100 scale), Foxtail, Giant [15, 26]: 0
pest or weed control at 125 g/ha [15, 25]: 0%
pest or weed control at 250 g/ha [16]: 0%
plant injury at 250 g/ha (rice (Oryza sativa)): 0%
pest or weed control at 250 g/ha [17]: 75%
